The NIST ThermoML archive (doi:10.1021/je400274f)
Where “and” joins values, the source holds several entries; their conditions need not be identical. Equal entries are not always repeated. ± gives the expanded uncertainty stated by the source.

Conditions: 101.33 kPa, Liquid; for viscosity: Concentric cylinders viscometry; for speed of sound: Pulse-echo method; for mass density: Vibrating tube method

CCCCCCCCC(C)C [2-methyldecane]
Conditions | mass density | speed of sound [m/s] | viscosity [mPa·s]
283.15 K | 745.7 ± 0.3 kg/m3 and 745.8 ± 0.3 kg/m3 | 1295.5 ± 1.3 | 1.37 ± 0.02
293.15 K | 738.4 ± 0.3 kg/m3 and 738.3 ± 0.3 kg/m3 | 1256.2 ± 1.3 | 1.15 ± 0.04
303.15 K | 730.9 ± 0.3 kg/m3 | 1217.1 ± 1.3 | 0.977 ± 0.021
313.15 K | 723.5 ± 0.3 kg/m3 and 723.2 ± 0.3 kg/m3 | 1178.8 ± 1.3 | 0.83 ± 0.017
323.15 K | 715.9 ± 0.3 kg/m3 and 715.7 ± 0.3 kg/m3 | 1141 ± 1.3 | 0.736 ± 0.015
333.15 K | 708.1 ± 0.3 kg/m3 | – | 0.647 ± 0.017
343.15 K | 700.5 ± 0.3 kg/m3 | – | 0.575 ± 0.017
353.15 K | 692.8 ± 0.4 kg/m3 | – | 0.514 ± 0.015
363.15 K | 684.9 ± 0.4 kg/m3 | – | 0.464 ± 0.013
373.15 K | 677 ± 0.4 kg/m3 | – | 0.422 ± 0.011

CCCCCCCC(C)C [2-methylnonane]
Conditions | mass density | speed of sound [m/s] | viscosity [mPa·s]
283.15 K | 734.7 ± 0.4 kg/m3 and 734.5 ± 0.3 kg/m3 | 1271.4 ± 1.5 | 1.037 ± 0.022
293.15 K | 726.9 ± 0.3 kg/m3 and 727.1 ± 0.4 kg/m3 | 1231.1 ± 1.5 | 0.887 ± 0.02
303.15 K | 719.3 ± 0.3 kg/m3 and 719.4 ± 0.4 kg/m3 | 1191.3 ± 1.5 | 0.768 ± 0.017
313.15 K | 711.6 ± 0.3 kg/m3 and 711.7 ± 0.4 kg/m3 | 1152 ± 1.5 | 0.653 ± 0.015
323.15 K | 703.9 ± 0.3 kg/m3 and 703.9 ± 0.4 kg/m3 | 1113.4 ± 1.5 | 0.595 ± 0.013
333.15 K | 696 ± 0.4 kg/m3 | – | 0.529 ± 0.012
343.15 K | 688.1 ± 0.4 kg/m3 | – | 0.475 ± 0.011
353.15 K | 680.2 ± 0.4 kg/m3 | – | 0.428 ± 0.01
363.15 K | 672.1 ± 0.4 kg/m3 | – | 0.388 ± 0.009
373.15 K | 664 ± 0.4 kg/m3 | – | 0.355 ± 0.009

CCCCCCC(C)C [2-methyloctane]
Conditions | mass density | speed of sound [m/s] | viscosity [mPa·s]
283.15 K | 723.2 ± 0.5 kg/m3 and 723.2 ± 0.3 kg/m3 | 1242.2 ± 1.5 | 0.776 ± 0.017
293.15 K | 715.4 ± 0.3 kg/m3 and 715.3 ± 0.4 kg/m3 | 1201.3 ± 1.5 | 0.676 ± 0.015
303.15 K | 707.6 ± 0.3 kg/m3 and 707.4 ± 0.4 kg/m3 | 1160.7 ± 1.5 | 0.594 ± 0.013
313.15 K | 699.6 ± 0.3 kg/m3 and 699.4 ± 0.4 kg/m3 | 1120.7 ± 1.5 | 0.499 ± 0.011
323.15 K | 691.6 ± 0.4 kg/m3 and 691.4 ± 0.4 kg/m3 | 1081.2 ± 1.5 | 0.47 ± 0.011
333.15 K | 683.3 ± 0.4 kg/m3 | – | 0.422 ± 0.01
343.15 K | 675.1 ± 0.4 kg/m3 | – | 0.381 ± 0.009
353.15 K | 666.7 ± 0.4 kg/m3 | – | 0.345 ± 0.008
363.15 K | 658.2 ± 0.4 kg/m3 | – | 0.315 ± 0.008
373.15 K | 649.7 ± 0.5 kg/m3 | – | 0.288 ± 0.008

CCCCCCCCCCCCCC(C)C [2-methylpentadecane]
Conditions | mass density | speed of sound [m/s] | viscosity [mPa·s]
283.15 K | 782.2 ± 4.9 kg/m3 and 781.8 ± 4.9 kg/m3 | 1378.7 ± 6.1 | 4.6 ± 0.29
293.15 K | 774.9 ± 4.9 kg/m3 and 775 ± 4.9 kg/m3 | 1341 ± 6.1 | 3.52 ± 0.24
303.15 K | 767.9 ± 4.8 kg/m3 and 768 ± 4.8 kg/m3 | 1303.8 ± 6.1 | 2.77 ± 0.16
313.15 K | 761 ± 4.7 kg/m3 | 1267.3 ± 6.1 | 2.24 ± 0.16
323.15 K | 754.1 ± 4.6 kg/m3 and 754 ± 4.6 kg/m3 | 1231.6 ± 6.1 | 1.85 ± 0.11
333.15 K | 747 ± 4.5 kg/m3 | – | 1.55 ± 0.08
343.15 K | 740 ± 4.5 kg/m3 | – | 1.33 ± 0.06
353.15 K | 733 ± 4.4 kg/m3 | – | 1.14 ± 0.07
363.15 K | 726 ± 4.3 kg/m3 | – | 1 ± 0.05
373.15 K | 718.9 ± 4.2 kg/m3 | – | 0.88 ± 0.03

CCC(C)CC(C)CC (centres undefined) [3,5-dimethylheptane]
Conditions | mass density | speed of sound [m/s] | viscosity [mPa·s]
283.15 K | 734.1 ± 0.5 kg/m3 and 734 ± 0.4 kg/m3 | 1245.1 ± 1.9 | 0.792 ± 0.018
293.15 K | 726.2 ± 0.4 kg/m3 and 726.3 ± 0.5 kg/m3 | 1203.3 ± 1.9 | 0.688 ± 0.016
303.15 K | 718.4 ± 0.4 kg/m3 and 718.4 ± 0.5 kg/m3 | 1162 ± 1.9 | 0.604 ± 0.014
313.15 K | 710.5 ± 0.4 kg/m3 and 710.5 ± 0.5 kg/m3 | 1121.3 ± 1.9 | 0.508 ± 0.012
323.15 K | 702.5 ± 0.4 kg/m3 and 702.5 ± 0.5 kg/m3 | 1081.4 ± 1.9 | 0.477 ± 0.012
333.15 K | 694.5 ± 0.5 kg/m3 | – | 0.428 ± 0.01
343.15 K | 686.3 ± 0.5 kg/m3 | – | 0.386 ± 0.01
353.15 K | 678 ± 0.5 kg/m3 | – | 0.35 ± 0.01
363.15 K | 669.7 ± 0.5 kg/m3 | – | 0.319 ± 0.008
373.15 K | 661.2 ± 0.5 kg/m3 | – | –

CCC(C)CCC(C)CC (centres undefined) [3,6-dimethyloctane]
Conditions | mass density | speed of sound [m/s] | viscosity [mPa·s]
283.15 K | 746.6 ± 0.4 kg/m3 and 746.6 ± 0.5 kg/m3 | 1277.8 ± 1.7 | 0.988 ± 0.022
293.15 K | 738.9 ± 0.5 kg/m3 and 738.9 ± 0.4 kg/m3 | 1236.7 ± 1.7 | 0.846 ± 0.018
303.15 K | 731.2 ± 0.5 kg/m3 and 731.1 ± 0.4 kg/m3 | 1196.2 ± 1.7 | 0.733 ± 0.016
313.15 K | 723.5 ± 0.6 kg/m3 and 723.3 ± 0.4 kg/m3 | 1156.3 ± 1.9 | 0.62 ± 0.014
323.15 K | 715.7 ± 0.6 kg/m3 and 715.5 ± 0.4 kg/m3 | 1117.2 ± 1.7 | 0.568 ± 0.014
333.15 K | 707.6 ± 0.4 kg/m3 | – | 0.506 ± 0.012
343.15 K | 699.6 ± 0.4 kg/m3 | – | 0.453 ± 0.01
353.15 K | 691.5 ± 0.4 kg/m3 | – | 0.409 ± 0.01
363.15 K | 683.3 ± 0.4 kg/m3 | – | 0.372 ± 0.01
373.15 K | 674.9 ± 0.5 kg/m3 | – | 0.328 ± 0.008

CCCCCCCCC(C)CC (centres undefined) [3-methylundecane]
Conditions | mass density | speed of sound [m/s] | viscosity [mPa·s]
283.15 K | 758.6 ± 0.6 kg/m3 and 758.3 ± 0.6 kg/m3 | 1330.2 ± 2.3 | 1.73 ± 0.03
293.15 K | 751.1 ± 0.6 kg/m3 and 751.3 ± 0.6 kg/m3 | 1291 ± 2.3 | 1.43 ± 0.03
303.15 K | 743.9 ± 0.6 kg/m3 and 744 ± 0.6 kg/m3 | 1252.2 ± 2.3 | 1.2 ± 0.02
313.15 K | 736.6 ± 0.6 kg/m3 and 736.7 ± 0.6 kg/m3 | 1214 ± 2.3 | 1.01 ± 0.02
323.15 K | 729.3 ± 0.6 kg/m3 | 1176.6 ± 2.3 | 0.883 ± 0.021
333.15 K | 721.9 ± 0.6 kg/m3 | – | 0.771 ± 0.019
343.15 K | 714.4 ± 0.6 kg/m3 | – | 0.68 ± 0.017
353.15 K | 707 ± 0.6 kg/m3 | – | 0.605 ± 0.014
363.15 K | 699.4 ± 0.6 kg/m3 | – | 0.543 ± 0.012
373.15 K | 691.9 ± 0.6 kg/m3 | – | 0.492 ± 0.012

CCCCC(C)CCC (centres undefined) [4-methyloctane]
Conditions | mass density | speed of sound [m/s] | viscosity [mPa·s]
283.15 K | 727.5 ± 0.4 kg/m3 and 727.6 ± 0.3 kg/m3 | 1254.9 ± 1.5 | 0.719 ± 0.021
293.15 K | 719.8 ± 0.3 kg/m3 and 719.7 ± 0.4 kg/m3 | 1213 ± 1.5 | 0.628 ± 0.021
303.15 K | 711.9 ± 0.3 kg/m3 and 711.7 ± 0.4 kg/m3 | 1171.6 ± 1.5 | 0.554 ± 0.021
313.15 K | 703.9 ± 0.3 kg/m3 and 703.7 ± 0.4 kg/m3 | 1130.8 ± 1.5 | 0.453 ± 0.08
323.15 K | 695.9 ± 0.3 kg/m3 and 695.7 ± 0.4 kg/m3 | 1090.7 ± 1.5 | 0.441 ± 0.021
333.15 K | 687.5 ± 0.4 kg/m3 | – | 0.397 ± 0.021
343.15 K | 679.3 ± 0.4 kg/m3 | – | 0.368 ± 0.06
353.15 K | 671 ± 0.4 kg/m3 | – | 0.329 ± 0.04
363.15 K | 662.5 ± 0.4 kg/m3 | – | 0.294 ± 0.04
373.15 K | 653.9 ± 0.4 kg/m3 | – | 0.261 ± 0.04

CCCCCCCCCC(C)CCCCCC (centres undefined) [7-methylhexadecane]
Conditions | mass density | speed of sound [m/s] | viscosity [mPa·s]
283.15 K | 787.6 ± 0.6 kg/m3 | 1392.5 ± 2.3 | 5.36 ± 0.52
293.15 K | 780.7 ± 0.6 kg/m3 | 1354.9 ± 2.3 | 4 ± 0.4
303.15 K | 773.9 ± 0.6 kg/m3 and 773.8 ± 0.6 kg/m3 | 1317.7 ± 2.3 | 3.09 ± 0.28
313.15 K | 767 ± 0.6 kg/m3 and 766.9 ± 0.6 kg/m3 | 1281.3 ± 2.3 | 2.47 ± 0.22
323.15 K | 760.2 ± 0.6 kg/m3 and 760 ± 0.6 kg/m3 | 1245.5 ± 2.3 | 2 ± 0.18
333.15 K | 753.1 ± 0.6 kg/m3 | – | 1.66 ± 0.16
343.15 K | 746.2 ± 0.6 kg/m3 | – | 1.41 ± 0.12
353.15 K | 739.3 ± 0.6 kg/m3 | – | 1.21 ± 0.08
363.15 K | 732.4 ± 0.6 kg/m3 | – | 1.05 ± 0.08
373.15 K | 725.4 ± 0.6 kg/m3 | – | 0.91 ± 0.05
